# Assay: Thermo Scientific Acclaim RSLC 120 C18, 100 × 2.1 mm, 2.2 µm, 30 °C; A: 90% water + 10% methanol + 0.01% formic acid + 5 mM ammonium formate; B: methanol + 0.01% formic acid + 5 mM ammonium formate; gradient (min/%B) 0.1/1 3/39 14/99.9 16/99.9
# Details: stereoisomer not certain
row,SMILES,LC retention time
1,COC(=O)C1C2CC3c4[nH]c5cc(OC)ccc5c4CCN3CC2CC(OC(=O)c2cc(OC)c(OC)c(OC)c2)C1OC (configuration not stated),8.47 min
2,CCCCOCCOCCSC#N,8.12 min
3,CC=CC(=O)Oc1c(C(C)CCCCCC)cc([N+](=O)[O-])cc1[N+](=O)[O-] (configuration not stated),13.1 min
4,N#CSCSc1nc2ccccc2s1,9.25 min
5,Cc1ccc(-c2nc3ccc(C)cn3c2CC(=O)N(C)C)cc1,5.8 min
6,Cc1ccc(C(=O)c2cn(CCCCCO)c3ccccc23)c2ccccc12,10.6 min
7,C=CCN1CCC23c4c5ccc(O)c4OC2C(=O)CCC3(O)C1C5 (configuration not stated),3.44 min
8,O=C(O)c1cc(N=Nc2ccc(O)c(C(=O)O)c2)ccc1O,5.66 min
9,C=C1CC23CC1(O)CCC2C12C=CC(O)C(C)(C(=O)O1)C2C3C(=O)O (configuration not stated),4.91 min
10,Cc1ncc([N+](=O)[O-])n1CCCO,4.21 min
11,CCCOC(=O)NCCCN(C)C,3.5 min
12,CCC(CC)(CNC(=O)CCCO)c1cccc(OC)c1,8.98 min
13,CN(C)CCC=C1c2ccccc2CSc2ccccc21,7.61 min
14,CC(C)(C)C(NC(=O)c1nn(CC2CCCCC2)c2ccccc12)C(N)=O (configuration not stated),11.7 min
15,Cc1cc(C(C)(C)C)c(O)c(C)c1CC1=NCCN1,6.99 min
16,CSc1nc(NC2CC2)nc(NC(C)(C)C)n1,10.5 min
17,CNCCC(c1ccccc1)c1ccccn1 (configuration not stated),5.79 min
18,CCOc1c(N)c2c(c(OCC)c1OCC)C(C1c3c(cc4c(c3OC)OCO4)CCN1C)OC2=O (configuration not stated),12 min
19,O=C(O)c1cccc(Oc2ccccc2)c1,9.38 min
20,CNC(C)Cc1cccs1 (configuration not stated),3.69 min
21,CCOC(=O)NC(=S)Nc1ccccc1NC(=S)NC(=O)OCC,8.61 min

row,SMILES,LC retention time
1,COC(=O)c1sccc1S(=O)(=O)NC(=O)Nc1nc(C)nc(OC)n1,6.24 min
2,CCCSP(=O)(OCC)SCCC,10.2 min
3,CCOC(=O)NCCOc1ccc(Oc2ccccc2)cc1,10.6 min
4,O=C(c1cccc2ccccc12)c1cn(CCCCCO)c2ccccc12,10 min
5,CC(C)(C)Nc1nc(N)[nH]c(=O)n1,3.99 min
6,CCCCCn1cc(C(=O)c2cccc3ccccc23)c2ccc(OC)cc21,12.4 min
7,CCOc1cc(OP(=S)(OC)OC)nc(CC)n1,11 min
8,CC(O)CCn1cc(C(=O)c2cccc3ccccc23)c2ccccc21 (configuration not stated),9.91 min
9,COc1ccc2c3c1OC1CC(O)C=CC31CCN(C)C2 (configuration not stated),2.99 min
10,N#Cc1ccc(C(c2ccc(C#N)cc2)n2cncn2)cc1,6.33 min
11,CC(C)CN(CC(O)C(Cc1ccccc1)NC(=O)OC1COC2OCCC12)S(=O)(=O)c1ccc(N)cc1 (configuration not stated),8.21 min
12,Cc1nccc2c1[nH]c1ccccc12,4.91 min
13,CCS(=O)Cc1ccccc1OC(=O)NC (configuration not stated),4.7 min
14,CC(C)(C)c1ccc(C(O)CCCN2CCC(C(O)(c3ccccc3)c3ccccc3)CC2)cc1 (configuration not stated),9.69 min
15,Cc1cnc(C(=O)NCCc2ccc(S(=O)(=O)NC(=O)NC3CCCCC3)cc2)cn1,8.11 min
16,CC(CN1c2ccccc2Sc2ccc(S(=O)(=O)N(C)C)cc21)N(C)C (configuration not stated),7.01 min
17,CC(CN1c2ccccc2Sc2ccccc21)N(C)C (configuration not stated),7.53 min
18,CCC(=O)OC(OP(=O)(CCCCc1ccccc1)CC(=O)N1CC(C2CCCCC2)CC1C(=O)O)C(C)C (configuration not stated),12.4 min
19,CN1CCCCC1Cn1cc(C(=O)C2C(C)(C)C2(C)C)c2ccccc21 (configuration not stated),8.81 min
20,CCCCNc1ccc(C(=O)OCCN(C)C)cc1,6.43 min
21,CC(C)CNC(=O)N1CCNC1=O,5.74 min

row,SMILES,LC retention time
1,CCC1(c2ccc(N)cc2)CCC(=O)NC1=O (configuration not stated),4.99 min
2,CC(=O)Nc1ccc(S(=O)(=O)Nc2nc(C)cc(C)n2)cc1,4.59 min
3,Cc1oc(C)c(C(=O)Nc2ccccc2)c1C,8.79 min
4,c1ccc2c(c1)Cc1cccnc1N1CCNCC21 (configuration not stated),5.31 min
5,COP(=O)(NC(C)=O)SC (configuration not stated),3.11 min
6,CCC1OC(=O)C(C)C(OC2CC(C)(OC)C(O)C(C)O2)C(C)C(OC2OC(C)CC(NC)C2O)C(C)(OC)CC(C)C(=O)C(C)C(O)C1(C)O (configuration not stated),9.16 min
7,CN1CCN2c3ccccc3Cc3ccccc3C2C1 (configuration not stated),6.94 min
8,Cc1ccc(NC=O)c(C)c1,6.67 min
9,CCC12CCCN3CCc4c(n(c5ccccc45)C(O)(C(=O)OC)C1)C32 (configuration not stated),5.04 min
10,CC(C)C1(C)N=C(c2ncccc2C(=O)O)NC1=O (configuration not stated),4.1 min
11,CC(C)C1(C)N=C(c2nc3ccccc3cc2C(=O)O)NC1=O (configuration not stated),6.1 min
12,CCCC(C)(COC(N)=O)COC(N)=O,5.94 min
13,Cc1ccccc1CC(C)N (configuration not stated),5.17 min
14,CCOC(=O)C(CCc1ccccc1)NC1CCCN2CCCC(C(=O)O)N2C1=O (configuration not stated),7.94 min
15,COc1ccc(N)cc1N,2.37 min
16,CC(C)(C)NCC(O)c1ccc(O)c(CO)c1 (configuration not stated),3.23 min
17,CCCC(=O)Nc1ccc(OCC(O)CNC(C)C)c(C(C)=O)c1 (configuration not stated),4.78 min
18,CCCOc1ccc(S(=O)(=O)N2CCN(CC)CC2)cc1-c1nc(=S)c2c([nH]1)c(CCC)nn2C,10.5 min
19,COC1=CC(=O)OC(C=Cc2ccccc2)C1 (configuration not stated),8.32 min
20,COc1cc2c(cc1OC)CC(=O)N(CCCN(C)CC1Cc3cc(OC)c(OC)cc31)CC2 (configuration not stated),5.02 min
21,CSc1nc2ccccc2s1,9.79 min

row,SMILES,LC retention time
1,c1cnc2cc3c(cc2n1)C1CNCC3C1,3.63 min
2,COc1ccc(C(O)(c2cncnc2)C2CC2)cc1 (configuration not stated),7.15 min
3,CN1CCCC1c1cccnc1 (configuration not stated),2.41 min
4,CCCC(NC)C(=O)c1ccccc1 (configuration not stated),4.89 min
5,Cc1nnc(-c2ccccc2)c(=O)[nH]1,5.29 min
6,CN(CC=Cc1ccccc1)Cc1cccc2ccccc12,8.52 min
7,CCS(=O)(=O)CCn1c([N+](=O)[O-])cnc1C,3.86 min
8,CCN(CC)CCCN(c1ccccc1)C1Cc2ccccc2C1,8.85 min
9,CSC(=O)c1cccc2nnsc12,9.65 min
10,CCCCC1(COC(=O)CCC(=O)O)C(=O)N(c2ccccc2)N(c2ccccc2)C1=O,9.61 min
11,COC(C)C(O)(C(=O)OCC1=CCN2CCC(O)C12)C(C)C (configuration not stated),4.27 min
12,COc1cc(C(=O)NCc2ccc(OCCN(C)C)cc2)cc(OC)c1OC,4.86 min
13,CCCC(NC(C)C(=O)N1C(C(=O)O)CC2CCCCC21)C(=O)OCC (configuration not stated),13.2 min
14,COC(=O)C1C(OC(=O)c2ccccc2)CC2CCC1N2C (configuration not stated),4.84 min
15,CCCCCn1cc(C(=O)C23CC4CC(CC(C4)C2)C3)c2ccccc21,13.7 min
16,CC=C1CC(C)C(O)(CO)C(=O)OCC2=CCN3CCC(OC1=O)C23 (configuration not stated),4.01 min
17,COc1ccc(Cc2cnc(N)nc2N)cc1OC,3.88 min
18,CNC(=O)Oc1ccc2c(c1)C1(C)CCN(C)C1N2C (configuration not stated),3.89 min
19,CNCC12CCC(c3ccccc31)c1ccccc12,6.52 min
